ChEMBL document CHEMBL1201862, “PubChem BioAssay data set” (2004)
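Results reflect a 48-hour exposure of cells in 96-well plates to compound at five concentrations. The concentration for 50% growth inhibition is given as GI50.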 The source made the active and inactive calls. Rule as the data show it: active = GI50 up to about 1.1 µM and inactive = higher.

Columns and labels:
Assay in all cases: NCI-60 cell line screen, 48 h
A498 = tested on: A498
ACHN = tested on: ACHN
CAKI-1 = tested on: CAKI-1
CCRF-CEM = tested on: CCRF-CEM
COLO 205 = tested on: COLO 205
DLD-1 = tested on: DLD-1
DMS-114 = tested on: DMS-114
EKVX = tested on: EKVX
HCT-15 = tested on: HCT-15
HL-60 = tested on: HL-60
HOP-18 = tested on: HOP-18
HOP-92 = tested on: HOP-92
HT-29 = tested on: HT-29
IGROV-1 = tested on: IGROV-1
K562 = tested on: K562
KM-20L2 = tested on: KM-20L2
LOX IMVI = tested on: LOX IMVI
LXFL 529 = tested on: LXFL 529
M14 = tested on: M14
M19-MEL = tested on: M19-MEL
MOLT-4 = tested on: MOLT-4
Malme-3M = tested on: Malme-3M
NCI-H226 = tested on: NCI-H226
NCI-H23 = tested on: NCI-H23
NCI-H460 = tested on: NCI-H460
NCI-H522 = tested on: NCI-H522
OVCAR-3 = tested on: OVCAR-3
OVCAR-8 = tested on: OVCAR-8
RPMI-8226 = tested on: RPMI-8226
RXF 631 = tested on: RXF 631
SF-268 = tested on: SF-268
SF-295 = tested on: SF-295
SF-539 = tested on: SF-539
SK-MEL-28 = tested on: SK-MEL-28
SK-MEL-2 = tested on: SK-MEL-2
SK-MEL-5 = tested on: SK-MEL-5
SK-OV-3 = tested on: SK-OV-3
SN12C = tested on: SN12C
SNB-19 = tested on: SNB-19
SNB-75 = tested on: SNB-75
SNB-78 = tested on: SNB-78
SW-620 = tested on: SW-620
TK-10 = tested on: TK-10
U-251 = tested on: U-251
UACC-62 = tested on: UACC-62
UO-31 = tested on: UO-31
XF498 = tested on: XF498

O=c1ccc2cc3ccc4cccc5ccc(c2o1)c3c45
GI50 (A498): 16 µM (inactive)
GI50 (ACHN): 12.5 µM (inactive)
GI50 (CAKI-1): > 100 µM (inactive)
GI50 (CCRF-CEM): > 100 µM (inactive)
GI50 (COLO 205): > 100 µM (inactive)
GI50 (DLD-1): > 100 µM (inactive)
GI50 (DMS-114): 33 µM (inactive)
GI50 (EKVX): > 100 µM (inactive)
GI50 (HCT-15): > 100 µM
GI50 (HL-60): > 100 µM (inactive)
GI50 (HOP-18): 5.7 µM (inactive)
GI50 (HOP-92): 5.24 µM (inactive)
GI50 (HT-29): 22.2 µM (inactive)
GI50 (IGROV-1): > 100 µM (inactive)
GI50 (K562): > 100 µM (inactive)
GI50 (KM-20L2): > 100 µM (inactive)
GI50 (LOX IMVI): 12.1 µM (inactive)
GI50 (LXFL 529): 45 µM (inactive)
GI50 (M14): > 100 µM (inactive)
GI50 (M19-MEL): > 100 µM (inactive)
GI50 (MOLT-4): > 100 µM (inactive)
GI50 (Malme-3M): > 100 µM (inactive)
GI50 (NCI-H226): 19.7 µM (inactive)
GI50 (NCI-H23): 67.8 µM (inactive)
GI50 (NCI-H460): 13.1 µM (inactive)
GI50 (NCI-H522): 25.9 µM (inactive)
GI50 (OVCAR-3): > 10 µM (inactive)
GI50 (OVCAR-8): 23.2 µM (inactive)
GI50 (RPMI-8226): > 100 µM (inactive)
GI50 (RXF 631): 80 µM (inactive)
GI50 (SF-268): 28.8 µM (inactive)
GI50 (SF-295): 33 µM (inactive)
GI50 (SF-539): 9.64 µM (inactive)
GI50 (SK-MEL-28): > 100 µM (inactive)
GI50 (SK-MEL-2): > 100 µM (inactive)
GI50 (SK-MEL-5): 40.4 µM (inactive)
GI50 (SK-OV-3): 13.6 µM (inactive)
GI50 (SN12C): 25 µM (inactive)
GI50 (SNB-19): 37.3 µM (inactive)
GI50 (SNB-75): 24.7 µM (inactive)
GI50 (SNB-78): > 100 µM (inactive)
GI50 (SW-620): 31.8 µM (inactive)
GI50 (TK-10): > 100 µM (inactive)
GI50 (U-251): 13.1 µM (inactive)
GI50 (UACC-62): 47 µM (inactive)
GI50 (UO-31): 14.3 µM (inactive)
GI50 (XF498): 12 µM (inactive)
